Reference: patent US20090053187A1 (priority 2005, published 2009)
Where “and” joins values, the source holds several entries; their conditions need not be identical. Identical values can stand only once.

Columns and labels:
[1] = test system: Bacillus anthracis STI-1; parameters: species or system Mice of CBA line; conditions: mouse, in vivo
[2] = test system: STI-1; format: cell-based
[3] = test system: STI-PRTS; format: cell-based
[4] = test system: Bacillus anthracis 71/12 (Tsenkovsky vaccine II); parameters: species or system outbred white mice; conditions: mouse, in vivo

In the case of `C[C@H]1c2cccc(O)c2C(=O)C2=C(O)[C@]3(O)C(=O)C(C(N)=O)=C(O)[C@@H](N(C)C)[C@@H]3[C@@H](O)[C@@H]21` [doxycycline], the “Death of animals among those taken for the experiment” value [1] was 3/3 and 1/3 and 0/3.

With ampicillin the “Zone of culture growth delay at using discs with antibiotics” value (“Zone of culture growth delay” for short) [2] was 4 mm and the “Zone of culture growth delay” value [3] was 0 mm.

lyzozyme was tested, and the “Death of animal on day 2” value [4] was 1, the “Death of animal on day 3” value [4] was 3 and the “Death of animal on day 6” value [4] was 0. For the same molecule, the “Death of animal on day 7” value [4] was 0, the “Number of perished/Number of infected” value [4] was 4/5 and the mortality [4] was 80%.

tetracycline [Tc] was tested, and the “Zone of culture growth delay” value [2] was 7 mm and the “Zone of culture growth delay” value [3] was 0 mm.
